pIC50: −log10 of the molar value. “And” between values parts separate entries of the source, which are not always exact repeats. Equal entries are not always repeated.
Legend:
[1] = test system: Lysyl oxidase family activity in aorta; assay: Target engagement: lysyl oxidase family activity in freshly excised aorta, fluorometric activity assay (Fig. 2h); type: in vivo, rat; parameters: Lysyl oxidase family activity in freshly excised aorta: unit not given here; details: for Lysyl oxidase family activity in freshly excised aorta: single 30 mg/kg oral, individual samples, 30 mg/kg
Description: Data are presented as mean ± s.d. Two-tailed P value determined by unpaired, nonparametric t-test with a Mann–Whitney U-test correction (comparison to PBS control). h, Lysyl oxidase family activity measured in freshly excised aorta determined by fluorometric activity assay n = 19 (PBS), 5 (4–120 h) biological independent samples. Data presented as mean ± s.d. Two-tailed P value determined by unpaired, nonparametric t-test with a Mann–Whitney U-test correction (comparison to PBS control).
To confirm that PXS-5505 inhibits lysyl oxidase family enzymatic activity in tissues, target engagement experiments were performed following a single oral dose (30 mg kg^−1) in rats. […] Lysyl oxidase family activity was measured in two tissues; aorta (core tissue) and ear (peripheral tissue).

[2] = target: T1, bovine aorta extracted LOX (Bos taurus, UniProt P33072); assay: Substrate competition assay versus putrescine dihydrochloride, amplex red (Extended Data Fig. 3b); type: biochemical
T1 construct: performed in an amplex red assay using bovine aorta extracted LOX; from tissue; host or cells: bovine aorta
Description: Similar to other fluoroallylamine-based amine oxidase inhibitors, the mode of inhibition is assumed to be a two-step mechanism (Fig. 2c), with PXS-5505 reacting with the unique LTQ cofactor found within the active site. The fluoroallylamine facilitates the formation of a covalent, irreversible bond. […] Furthermore, in jump dilution experiments, there is no significant recovery of activity following rapid dilution (LOXL1 (5 ± 5% recovery, n = 4), LOXL2 (7 ± 1.2% recovery, n = 3) and LOXL3 (11 ± 2% recovery, n = 3)).
Data presented as mean values +/− SD. f. […] Data presented as mean values +/− SD. […] Data presented as mean values +/− SD. […] Data presented as mean values +/− SD. Ordinary one-way ANOVA for multiple comparison test performed. Source data

Recombinant MAO-B = Recombinant MAO-B (Homo sapiens, UniProt P27338); assay: IC50 determination against other human amine oxidases; type: biochemical
Description: (§1) Data are presented as mean ± s.d. […] Data presented as mean ± s.d. […] Source data TEXT PRINTED IN THE PICTURE: (b) PXS-5505: Recombinant DAO IC50 (nM): >30,000; Recombinant SSAO/VAP1 IC50 (nM): >30,000; Recombinant MAO-A IC50 (nM): >30,000; Recombinant MAO-B IC50 (nM): >30,000 | (f) PXS-5505: Fibroblast LOX IC50 (nM): 4,930; Recombinant LOXL-1 IC50 (nM): 1,590; Recombinant LOXL-2 IC50 (nM): 570; Recombinant LOXL-3 IC50 (nM): 1,800; Recombinant LOXL-4 IC50 (nM): 190

Recombinant SSAO/VAP1 = Recombinant SSAO/VAP1 (Homo sapiens, UniProt Q16853); assay: as above; type: biochemical
Description: as §1

DAO = target: T2, DAO (Homo sapiens, UniProt P19801); assay: as above; type: biochemical
T2 sequence (P19801 20-751): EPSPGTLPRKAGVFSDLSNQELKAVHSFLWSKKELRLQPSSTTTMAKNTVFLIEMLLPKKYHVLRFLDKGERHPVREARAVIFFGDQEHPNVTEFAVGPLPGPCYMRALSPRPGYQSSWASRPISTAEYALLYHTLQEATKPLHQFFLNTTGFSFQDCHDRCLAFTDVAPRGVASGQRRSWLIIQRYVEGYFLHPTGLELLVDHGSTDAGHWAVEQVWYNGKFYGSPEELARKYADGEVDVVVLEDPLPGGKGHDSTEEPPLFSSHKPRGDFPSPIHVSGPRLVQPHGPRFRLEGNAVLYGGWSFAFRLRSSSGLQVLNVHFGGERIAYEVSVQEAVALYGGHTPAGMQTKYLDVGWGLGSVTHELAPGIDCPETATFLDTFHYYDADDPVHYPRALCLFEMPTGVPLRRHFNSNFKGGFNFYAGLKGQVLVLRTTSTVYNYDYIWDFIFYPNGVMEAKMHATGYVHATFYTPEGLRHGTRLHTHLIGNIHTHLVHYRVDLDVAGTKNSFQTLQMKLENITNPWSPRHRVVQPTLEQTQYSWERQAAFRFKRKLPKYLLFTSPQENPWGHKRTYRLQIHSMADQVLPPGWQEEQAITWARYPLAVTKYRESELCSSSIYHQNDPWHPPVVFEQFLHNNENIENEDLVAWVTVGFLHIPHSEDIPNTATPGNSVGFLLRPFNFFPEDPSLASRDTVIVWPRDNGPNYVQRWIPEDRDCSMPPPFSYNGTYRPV
Description: as §1

Sequence of Recombinant MAO-B (P27338 whole entry): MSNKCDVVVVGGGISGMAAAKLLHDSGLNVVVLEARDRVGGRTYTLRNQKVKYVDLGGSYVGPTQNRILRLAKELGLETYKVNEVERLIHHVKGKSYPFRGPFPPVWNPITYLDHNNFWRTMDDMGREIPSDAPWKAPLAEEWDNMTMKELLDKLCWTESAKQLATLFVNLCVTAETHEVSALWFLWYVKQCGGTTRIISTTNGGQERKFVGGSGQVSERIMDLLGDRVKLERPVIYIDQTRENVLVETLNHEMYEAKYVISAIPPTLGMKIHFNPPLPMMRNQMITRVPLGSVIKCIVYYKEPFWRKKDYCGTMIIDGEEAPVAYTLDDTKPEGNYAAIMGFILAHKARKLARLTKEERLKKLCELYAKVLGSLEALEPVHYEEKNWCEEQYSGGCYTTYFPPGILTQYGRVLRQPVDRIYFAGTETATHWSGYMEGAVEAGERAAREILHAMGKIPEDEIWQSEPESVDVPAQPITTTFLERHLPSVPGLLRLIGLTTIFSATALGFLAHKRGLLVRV
T1 sequence (P33072 170-418): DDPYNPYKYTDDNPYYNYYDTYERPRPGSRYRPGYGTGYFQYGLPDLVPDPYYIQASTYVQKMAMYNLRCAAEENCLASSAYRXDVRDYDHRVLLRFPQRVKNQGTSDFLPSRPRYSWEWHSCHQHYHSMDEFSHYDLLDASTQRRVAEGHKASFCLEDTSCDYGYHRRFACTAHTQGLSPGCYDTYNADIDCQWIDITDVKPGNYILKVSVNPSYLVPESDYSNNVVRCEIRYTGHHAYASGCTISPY
Sequence of Recombinant SSAO/VAP1 (Q16853 whole entry): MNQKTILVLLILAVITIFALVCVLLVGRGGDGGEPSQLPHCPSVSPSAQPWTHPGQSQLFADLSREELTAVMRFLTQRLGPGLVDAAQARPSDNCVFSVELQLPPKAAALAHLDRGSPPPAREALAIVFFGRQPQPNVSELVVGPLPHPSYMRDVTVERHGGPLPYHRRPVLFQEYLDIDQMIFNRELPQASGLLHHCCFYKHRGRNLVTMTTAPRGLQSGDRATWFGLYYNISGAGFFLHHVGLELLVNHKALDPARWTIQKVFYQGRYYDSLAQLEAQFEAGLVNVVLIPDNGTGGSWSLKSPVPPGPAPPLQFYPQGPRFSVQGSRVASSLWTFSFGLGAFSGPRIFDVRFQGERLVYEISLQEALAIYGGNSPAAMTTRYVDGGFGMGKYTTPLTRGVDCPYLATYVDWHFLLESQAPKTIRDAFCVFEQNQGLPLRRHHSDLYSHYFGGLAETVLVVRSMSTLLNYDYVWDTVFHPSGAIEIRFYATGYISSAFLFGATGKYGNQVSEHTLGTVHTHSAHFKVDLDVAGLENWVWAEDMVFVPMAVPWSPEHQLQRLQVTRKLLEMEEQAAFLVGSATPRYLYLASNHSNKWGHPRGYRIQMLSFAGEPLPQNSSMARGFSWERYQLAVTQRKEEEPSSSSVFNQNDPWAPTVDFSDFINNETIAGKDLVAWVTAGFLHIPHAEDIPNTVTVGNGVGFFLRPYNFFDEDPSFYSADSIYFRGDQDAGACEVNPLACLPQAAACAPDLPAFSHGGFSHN

Cl.Cl.NC/C=C(\F)CS(=O)(=O)c1cccc2cccnc12.O [PXS-5505, (Z)-3-fluoro-4-(quinolin-8-ylsulfonyl)but-2-en-1-amine dihydrochloride monohydrate]
recovery of lysyl oxidase family activity in the aorta, of initial activity ([1]; rats, single 30 mg kg−1 oral, 24 h after dosing): approximately 50% | Lysyl oxidase family activity in freshly excised aorta ([1]; rats, 4 h): 15.4162 and 30.1157 and 25.1081 and 16.4125 and 13.2925 | Lysyl oxidase family activity in freshly excised aorta ([1]; rats, 24 h): 54.6033 and 26.1568 and 51.6931 and 36.2595 and 23.1592 | Lysyl oxidase family activity in freshly excised aorta ([1]; rats, 48 h): 62.6086 and 39.9999 and 48.7392 and 69.3553 and 56.8756 | Lysyl oxidase family activity in freshly excised aorta ([1]; rats, 120 h): 94.5071 and 44.5094 and 104.61 and 70.2729 and 55.285 | calculated block of all lysyl oxidase family activity ([1]; single daily oral dose of 30 mg kg−1, over a 24-h period): > 70% | substrate competition [2]: substrate competition | pIC50 (Recombinant MAO-B): < 4.52 | pIC50 (Recombinant SSAO/VAP1): < 4.52 | pIC50 (DAO): < 4.52
